Measured values as given in patent US5532234A, “Use of 1-[4-[4-aryl (or heteroaryl)-1-piperazinyl]-butyl)-1H-azole derivatives for the preparation of medicaments intended for the treatment of disorders of gastric secretion” (Laboratories Del Dr. Esteve, S.A., priority 1993, dated 1996).
Read-outs that look alike come from different tables or passages of the source.

Test system: gastric acid secretion
Assay: Inhibitory activity on gastric acid secretion, Shay Method (pylorus-ligated rats)
Assay type: in vivo, male Wistar rats
Conditions: Rattus norvegicus, 2 h; for ED50: read-out: ED50 (inhibition of gastric acid secretion); for inhibition in vivo at 40 mg/kg: intraduodenal, read-out: Percentage of inhibition of gastric acid secretion
Description: Inhibitory activity on gastric acid secretion, Shay Method [Shay, H., Komarov, S. A., Fels, S. S., Merange, D., Grvenstein, M., Siplet, H.: Gastroenterology, 5, 43 (1945)--Visscher, F. E., Seay, P. H., Taxelaar, A. P., Veldhamp, W., Vander Brook, M. J.: J. Pharmac. Exp. Ther., 110, 188 (1954)--"Animal Experiments in Pharmacological Analysis", F. R. Domer; C. C. Thomas Pub, Springfield, Ill., USA, 1970, p. 140].
In this test, male Wistar rats weighing 200 to 250 grams are used, which rats are denied food from the day prior to that of the test, with free access to water. Batches which each contain at least 4 animals are used.
The rats are anesthetized with ethyl ether, a laparotomy is carried out on them and their pylori are ligatured, and then the abdominal incision is stitched up. Administration of the products, with the vehicle for the control batch, is carried out intraduodenally (i.d.) before stitching up the abdominal incision. The dose administered for the first test is 40 mg/kg and the 50% effective dose (ED50) by the i.d. route is also determined in a second test. The vehicle used is 5% w/v gum arabic in doubly-distilled water.
Two hours after ligaturing the pylorus, the rats are sacrificed by prolonged anesthesia with ethyl ether and the volume of the gastric juice is measured and the total acidity is determined using a pH meter equipped with an automatic burette. The percentage of inhibition of the gastric acid secretion is determined, with respect to the control batch, for each product and for each dose tested.
The results obtained for some of the derivatives of the present invention are summarized, as non-limiting examples, in Table II.

[1] = i.d. route, rats, Shay Method, two hours after pylorus ligature
[2] = Dose = 40 mg/kg, i.d. route, rats, Shay Method, two hours after pylorus ligature

Structure (SMILES)	ED50 [1]	inhibition in vivo at 40 mg/kg [2]	ED50	inhibition in vivo at 40 mg/kg
Cc1nc(Cl)c(Cl)n1CCCCN1CCN(c2cccc(C(F)(F)F)c2)CC1 [Example 76]	2.1 mg/kg	96%	–	–
N#Cc1cnn(CCCCN2CCN(c3ncccn3)CC2)c1 [Example 36]	2.1 mg/kg	78%	–	–
CN/C(=N/CCSCc1nc[nH]c1C)NC#N [Cimetidine, reference compound]	–	–	11.5 mg/kg	69%
FC(F)(F)c1cccc(N2CCN(CCCCn3cc(Cl)cn3)CC2)c1 [Example 77]	9.2 mg/kg	82%	–	–
c1cnc(N2CCN(CCCCn3cnc4cccnc43)CC2)nc1 [Example 17]	19 mg/kg	63%	–	–
CCc1nccn1CCCCN1CCN(c2ncccn2)CC1 [Example 12]	52 mg/kg	37%	–	–
c1cnc(N2CCN(CCCCn3cccn3)CC2)nc1 [Example 25]	21 mg/kg	85%	–	–
c1cnc(N2CCN(CCCCn3cc(-n4cccc4)cn3)CC2)nc1 [Example 46]	9.5 mg/kg	92%	–	–
c1cnc(N2CCN(CCCCn3ncc4ccccc43)CC2)nc1 [Example 29]	21 mg/kg	81%	–	–
Cc1cc(C(F)(F)F)n(CCCCN2CCN(c3ncccn3)CC2)n1 [Example 7]	47 mg/kg	40%	–	–
N#Cc1ccccc1N1CCN(CCCCn2cc(Cl)cn2)CC1 [Example 75]	8.4 mg/kg	94%	–	–
c1ccc2c(N3CCN(CCCCn4cncn4)CC3)nsc2c1 [Example 81]	5.2 mg/kg	82%	–	–
c1cnc(N2CCN(CCCCn3cncn3)CC2)nc1 [Example 21]	4.4 mg/kg	71%	–	–
Clc1cnn(CCCCN2CCN(c3ccccc3)CC2)c1 [Example 68]	13 mg/kg	94%	–	–
Cc1nc(Cl)c(Cl)n1CCCCN1CCN(c2ccccc2Cl)CC1 [Example 71]	9.1 mg/kg	73%	–	–
c1ccc(-c2nc(-c3ccccc3)n(CCCCN3CCN(c4ncccn4)CC3)c2-c2ccccc2)cc1 [Example 9]	45 mg/kg	35%	–	–
CCS(=O)(=O)Nc1cnn(CCCCN2CCN(c3ncccn3)CC2)c1 [Example 53]	6.4 mg/kg	90%	–	–
COc1ccc(N2CCN(CCCCn3cc(Cl)cn3)CC2)cc1 [Example 60]	26 mg/kg	63%	–	–
c1cnc(N2CCN(CCCCn3c4ccccc4c4ccccc43)CC2)nc1 [Example 2]	46 mg/kg	44%	–	–
c1cnc(N2CCN(CCCCn3nnc4ccccc43)CC2)nc1 [Example 19]	42 mg/kg	49%	–	–
CCCS(=O)(=O)Nc1cnn(CCCCN2CCN(c3ncccn3)CC2)c1 [Example 52]	40 mg/kg	54%	–	–
c1ccc(-c2nccn2CCCCN2CCN(c3ncccn3)CC2)cc1 [Example 13]	45 mg/kg	44%	–	–
Cc1cc2ncn(CCCCN3CCN(c4ncccn4)CC3)c2cc1C [Example 24]	36 mg/kg	59%	–	–
Cc1nc(Cl)c(Cl)n1CCCCN1CCN(c2ccccc2)CC1 [Example 69]	7.6 mg/kg	71%	–	–
c1ccc(-c2cn(CCCCN3CCN(c4ncccn4)CC3)cn2)cc1 [Example 15]	36 mg/kg	53%	–	–
c1cnc(N2CCN(CCCCn3nc4ccccc4n3)CC2)nc1 [Example 22]	34 mg/kg	55%	–	–
COc1cccc(N2CCN(CCCCn3cc(Cl)cn3)CC2)c1 [Example 64]	20 mg/kg	68%	–	–
Cc1cc(-c2ccccc2)n(CCCCN2CCN(c3ncccn3)CC2)n1 [Example 34]	50 mg/kg	45%	–	–

Structure (SMILES)	ED50 [1]	inhibition in vivo at 40 mg/kg [2]	ED50	inhibition in vivo at 40 mg/kg
c1cnc(N2CCN(CCCCn3cccc3)CC2)nc1 [Example 1]	12 mg/kg	90%	–	–
c1ccc(-c2ccc(-c3cnn(CCCCN4CCN(c5ncccn5)CC4)c3)cc2)cc1 [Example 45]	12 mg/kg	74%	–	–
COc1ccc(-c2cnn(CCCCN3CCN(c4ncccn4)CC3)c2)cc1 [Example 44]	31 mg/kg	81%	–	–
Brc1cnn(CCCCN2CCN(c3ncccn3)CC2)c1 [Example 35]	11 mg/kg	64%	–	–
Cc1nc(-c2ccccc2)c(-c2ccccc2)n1CCCCN1CCN(c2ncccn2)CC1 [Example 10]	19 mg/kg	81%	–	–
Fc1cnn(CCCCN2CCN(c3ncccn3)CC2)c1 [Example 37]	17 mg/kg	79%	–	–
Cc1nc(Cl)c(Cl)n1CCCCN1CCN(c2ccccc2C#N)CC1 [Example 73]	4.2 mg/kg	90%	–	–
Clc1ncn(CCCCN2CCN(c3ncccn3)CC2)c1Cl [Example 59]	20 mg/kg	75%	–	–
Cc1nc(Cl)c(Cl)n1CCCCN1CCN(c2ccccc2F)CC1 [Example 74]	5 mg/kg	94%	–	–
Fc1ccccc1N1CCN(CCCCn2cc(Cl)cn2)CC1 [Example 78]	10 mg/kg	87%	–	–
c1ccc2c(c1)ncn2CCCCN1CCN(c2nsc3ccccc23)CC1 [Example 82]	15 mg/kg	53%	–	–
c1ccc(-c2cnn(CCCCN3CCN(c4ncccn4)CC3)c2)cc1 [Example 47]	11 mg/kg	88%	–	–
Cc1nc(Cl)c(Cl)n1CCCCN1CCN(c2nsc3ccccc23)CC1 [Example 80]	7.1 mg/kg	88%	–	–
COc1ccccc1N1CCN(CCCCn2cccc2)CC1 [Example 66]	27 mg/kg	65%	–	–
Clc1cnn(CCCCN2CCN(c3ncccn3)CC2)c1 [Example 32]	15 mg/kg	78%	–	–
Cc1nc(Cl)c(Cl)n1CCCCN1CCN(c2ncccn2)CC1 [Example 11]	14 mg/kg	81%	–	–
COc1ccc(N2CCN(CCCCn3c(C)nc(Cl)c3Cl)CC2)cc1 [Example 61]	13 mg/kg	86%	–	–
O=[N+]([O-])c1cnn(CCCCN2CCN(c3ncccn3)CC2)c1 [Example 31]	2.7 mg/kg	90%	–	–
Clc1cnn(CCCCN2CCN(c3nsc4ccccc34)CC2)c1 [Example 79]	20 mg/kg	82%	–	–
O=C(O)c1cnn(CCCCN2CCN(c3ncccn3)CC2)c1 [Example 6]	52 mg/kg	41%	–	–
Clc1cccc(N2CCN(CCCCn3cc(Cl)cn3)CC2)c1 [Example 72]	21 mg/kg	88%	–	–
COc1ccccc1N1CCN(CCCCn2c(C)nc(Cl)c2Cl)CC1 [Example 63]	10 mg/kg	89%	–	–
Cc1nn(CCCCN2CCN(c3ncccn3)CC2)c(C)c1[N+](=O)[O-] [Example 27]	17 mg/kg	63%	–	–
c1cnc(N2CCN(CCCCn3cnc4ccccc43)CC2)nc1 [Example 16]	25 mg/kg	71%	–	–
COc1ccccc1N1CCN(CCCCn2cc(Cl)cn2)CC1 [Example 62]	13 mg/kg	81%	–	–
c1cnc(N2CCN(CCCCn3ccc4ccccc43)CC2)nc1 [Example 3]	30 mg/kg	63%	–	–
c1ccc(N2CCN(CCCCn3cccc3)CC2)cc1 [Example 67]	8.7 mg/kg	90%	–	–
